The values that follow come from ChEMBL document CHEMBL5120967, “Development of an Orally Active Small-Molecule Inhibitor of Receptor Activator of Nuclear Factor-κB Ligand” (J Med Chem, 2022).

The nature of data set [1]: Anti-osteoporosis activity C57/BL6 mouse bone marrow macrophage cells assessed as inhibition of RANKL-induced osteoclastogenesis at 1 uM measured after 5 to 6 days in presence of M-CSF and RNKL by TRAP staining microscopic analysis. The data set is classed as functional, BMDM. Conditions: time 5-6 day. Further details: scale not given: the % may be the effect or the level left.

Data set [2] can be described thus: Anti-osteoporosis activity C57/BL6 mouse bone marrow macrophage cells assessed as inhibition of RANKL-induced osteoclastogenesis at 0.1 uM measured after 5 to 6 days in presence of M-CSF and RNKL by TRAP staining microscopic analysis. The data set is classed as functional, BMDM. Also noted: scale not given: the % may be the effect or the level left. Conditions: time 5-6 day.

For another data set, the system named is BMDM. The experiment in a line: Cytotoxicity against C57/BL6 mouse bone marrow macrophage cells assessed as reduction in cell viability at 10 uM incubated for 3 days by CCK8 assay. Conditions: 72 h, time 3 day. The data set is classed as toxicity, cell-based.

Some results are limits rather than exact numbers.

As to `COC(=O)c1ccc(CCc2nc(C(=O)Nc3c(C)cccc3C)cc3c2[nH]c2ccccc23)cc1`, the Activity came to 77.6% in data set [1] and 28.5% in data set [2]. Also, the Cell viability in the data set on BMDM was 99.6%.
In the case of `O=C(NC1CCCCC1)c1cc2c([nH]c3ccccc32)c(CCc2ccccc2)n1`, in data set [1], the Activity is on record as 0%. For the same molecule, the Cell viability with BMDM was above 100%.
For `CNc1ccc(CCc2nc(C(=O)Nc3c(C)cccc3C)cc3c2[nH]c2ccccc23)cc1`, the Activity in data set [1] amounted to 37.9%. The Cell viability with BMDM is above 100%.
For the molecule `Cc1cccc(C)c1NC(=O)c1cc2c([nH]c3ccccc32)c(CCc2ccc(N)cc2)n1`, the results for the Activity in data set [1] and in data set [2] were 70.3% and 11.4%, respectively. For the same molecule, the Cell viability with BMDM is given as above 100%.
Take `Cc1cccc(C)c1NC(=O)c1cc2c([nH]c3ccccc32)c(CCc2ccc(C(F)(F)F)cc2)n1`: the Activity in data set [1] turned out to be 72.5%; in data set [2], 19.5%. Further, the Cell viability in the data set with BMDM was above 100%.
As to `Cc1cccc(C)c1NC(=O)c1cc2c([nH]c3ccccc32)c(CCc2cc(F)cc(F)c2)n1`, the Activity in data set [1] turned out to be 35.2%. Also, in the data set with BMDM, the Cell viability is given as above 100%.
Turning to `O=C(NC1CC1)c1cc2c([nH]c3ccccc32)c(CCc2ccccc2)n1`, in data set [1], the Activity was found to be 0%. Also, in the data set on BMDM, the Cell viability is above 100%.
As for `Cc1cccc(C)c1NC(=O)c1cc2c([nH]c3ccccc32)c(CCc2ncc[nH]2)n1`, in data set [1], the Activity was 28.6%. Besides, the Cell viability in the data set on BMDM was above 100%.
Consider `O=C(NCc1ccccc1)c1cc2c([nH]c3ccccc32)c(CCc2ccccc2)n1`, for which the Activity in data set [1] amounted to 0%. In addition, in the data set with BMDM, the Cell viability is above 100%.
Turning to `Cc1cccc(C)c1NC(=O)c1cc2c([nH]c3ccccc32)c(CCc2ccc(O)cc2)n1`, the Activity in data set [1] was 23.8%. Also, the Cell viability in the data set with BMDM is recorded as 76.9%.
Turning to `O=C(Nc1ccccn1)c1cc2c([nH]c3ccccc32)c(CCc2ccccc2)n1`, the Activity in data set [1] turned out to be 36.1%. In addition, the Cell viability in the data set on BMDM is given as above 100%.
For `O=C(NC1CCOCC1)c1cc2c([nH]c3ccccc32)c(CCc2ccccc2)n1`, the Activity in data set [1] turned out to be 47.9%. Further, the Cell viability in the data set with BMDM was above 100%.
With `O=C(c1cc2c([nH]c3ccccc32)c(CCc2ccccc2)n1)N1CCOCC1`, in data set [1], the Activity amounted to 32.6%. In the data set with BMDM, the Cell viability is reported as above 100%.
With `O=C(Nc1cccnc1)c1cc2c([nH]c3ccccc32)c(CCc2ccccc2)n1`, the Activity in data set [1] is given as 18.3%. The Cell viability in the data set on BMDM is above 100%.
In the case of `Cl.O=C(NC1CCNCC1)c1cc2c([nH]c3ccccc32)c(CCc2ccccc2)n1`, the Activity in data set [1] was 0%. The Cell viability in the data set with BMDM came to 47.9%.
For `O=C(Nc1cc[nH]n1)c1cc2c([nH]c3ccccc32)c(CCc2ccccc2)n1` the same measures were 39.9% and above 100%.
For `Cc1cccc(C)c1NC(=O)c1cc2c([nH]c3ccccc32)c(CCc2ccccc2O)n1`, the Activity in data set [1] is given as 36%. Also, the Cell viability in the data set on BMDM amounted to 87.1%.
For the molecule `Cc1cccc(C)c1NC(=O)c1cc2c([nH]c3ccccc32)c(CCc2nccs2)n1`, the Cell viability with BMDM is 71%.
Turning to `O=C(Nc1nccs1)c1cc2c([nH]c3ccccc32)c(CCc2ccccc2)n1`, the Activity in data set [1] came out at 27%. In addition, the Cell viability with BMDM is on record as above 100%.
For the molecule `Cc1cccc(C)c1NC(=O)c1cc2c([nH]c3ccccc32)c(CCc2cccnc2)n1`, in the data set on BMDM, the Cell viability is listed as 51.2%.
With `Cc1cccc(C)c1NC(=O)c1cc2c([nH]c3ccccc32)c(CCc2cccc(O)c2)n1`, the Activity in data set [1] is recorded as 0%. Moreover, in the data set on BMDM, the Cell viability was above 100%.
For `Cn1cc(NC(=O)c2cc3c([nH]c4ccccc43)c(CCc3ccccc3)n2)cn1`, the Activity in data set [1] was found to be 0%. Further, the Cell viability with BMDM is listed as above 100%.
In the case of `Cc1cccc(C)c1NC(=O)c1cc2c([nH]c3ccccc32)c(CNc2ccccc2)n1`, the Cell viability with BMDM turned out to be 67.6%.
